In US8048879B2, “Substituted 4,5,6,7-tetrahydro-isoxazolo[4,5-c]pyridine compounds and use thereof for producing medicaments” (Gruenenthal GmbH, priority 2005, dated 2011):

Experiments:
NA transporter = target: T1, NA transporter (Rattus norvegicus, UniProt Q9WTR4); experiment: Noradrenalin (NA) uptake inhibition, synaptosomes from rat brain (hypothalamus); type: biochemical
T1 construct: from tissue; host or cells: rat brain (hypothalamus), synaptosomes, P2 fraction
Text: b) Method for Determining Noradrenalin and 5-HT Uptake Inhibition:
Synaptosomes from rat brain regions are freshly isolated for in vitro studies, as described in the publication “The isolation of nerve endings from brain” by E. G. Gray and V. P. Whittaker, J. Anatomy 96, pages 79-88, 1962. The corresponding literature description is hereby introduced as a reference and is deemed to be part of the disclosure.
The tissue (hypothalamus for the determination of noradrenalin uptake inhibition and medulla and pons for the determination of 5-HT uptake inhibition) is homogenised in ice-cooled 0.32 M sucrose (100 mg of tissue/1 mL) in a glass homogeniser with Teflon pestle using five complete up and down strokes at 840 revolutions/minute.
The homogenate is centrifuged at 4° C. for 10 minutes at 1000 g. After subsequent centrifugation at 17000 g for 55 minutes, the synaptosomes (P2 fraction) are obtained, which are resuspended in 0.32 M […] (0.5 mL/100 mg of original weight).
The particular uptake is measured in a 96-well microtitre plate. The volume is 250 μL and the incubation proceeds at room temperature (approx. 20-25° C.) under an O2 atmosphere.
The incubation time is 7.5 minutes for [^3H]-NA and 5 minutes for [^3H]-5-HT. The 96 samples are then filtered through a Unifilter GF/B® microtitre plate (Packard) and washed with 200 mL of incubated buffer using a “Brabdel MPXRI-96T Cell-Harvester”. The Unifilter GF/B plate is dried for 1 hour at 55° C. The plate is then sealed with a Back Seal® (Packard) and 35 μL of scintillation fluid are added per well (Ultima Gold®, Packard). After sealing with a top Seal® (Packard) and establishing an equilibrium (around 5 hours), radioactivity is determined in a “Trilux 1450 Microbeta” (Wallac).
The quantity of protein used in the above determination corresponds to the values known from the literature, as for example described in “Protein measurement with the folin phenol reagent”, Lowry et al., J. Biol. Chem., 193, 265-275, 1951.
A detailed description of the method may additionally be found in the literature, for example in M. Ch. Frink, H.-H. Hennies, W. Engelberger, M. Haurand and B. Wilffert (1996) Arzneim.-Forsch./Drug Res. 46 (III), 11, 1029-1036.
The following characteristics were determined for the NA or 5-HT transporter: […]

5-HT transporter = target: T2, 5-HT transporter (Rattus norvegicus, UniProt P31652); experiment: 5-HT uptake inhibition, synaptosomes from rat brain (medulla and pons); type: biochemical
T2 construct: from tissue; host or cells: rat brain (medulla and pons), synaptosomes, P2 fraction
Procedure, shortened: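 Freshly isolated rat brain synaptosomes (P2 fraction): hypothalamus for NA uptake, medulla/pons for 5-HT uptake. Uptake of [3H]-NA (7.5 min) or [3H]-5-HT (5 min) at room temperature under O2, stopped by filtration over GF/B. Retained radioactivity counted by scintillation.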

T2 sequence (P31652 whole entry): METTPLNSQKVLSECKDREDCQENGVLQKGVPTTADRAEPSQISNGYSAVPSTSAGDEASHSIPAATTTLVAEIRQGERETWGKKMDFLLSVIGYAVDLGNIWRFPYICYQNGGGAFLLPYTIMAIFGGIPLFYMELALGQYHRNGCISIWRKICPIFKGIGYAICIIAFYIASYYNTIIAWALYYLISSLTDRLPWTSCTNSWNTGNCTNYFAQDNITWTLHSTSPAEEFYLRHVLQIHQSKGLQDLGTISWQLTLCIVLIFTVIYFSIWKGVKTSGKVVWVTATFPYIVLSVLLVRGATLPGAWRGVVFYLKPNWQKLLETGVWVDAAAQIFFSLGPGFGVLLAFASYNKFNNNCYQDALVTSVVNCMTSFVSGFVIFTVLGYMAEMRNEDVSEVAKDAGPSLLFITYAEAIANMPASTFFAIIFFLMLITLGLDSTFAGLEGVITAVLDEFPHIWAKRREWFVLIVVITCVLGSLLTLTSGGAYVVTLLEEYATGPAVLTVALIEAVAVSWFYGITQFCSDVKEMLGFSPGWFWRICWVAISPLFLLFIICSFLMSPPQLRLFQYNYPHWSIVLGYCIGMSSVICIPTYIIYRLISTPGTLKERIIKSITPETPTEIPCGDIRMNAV
T1 sequence (Q9WTR4 1-597): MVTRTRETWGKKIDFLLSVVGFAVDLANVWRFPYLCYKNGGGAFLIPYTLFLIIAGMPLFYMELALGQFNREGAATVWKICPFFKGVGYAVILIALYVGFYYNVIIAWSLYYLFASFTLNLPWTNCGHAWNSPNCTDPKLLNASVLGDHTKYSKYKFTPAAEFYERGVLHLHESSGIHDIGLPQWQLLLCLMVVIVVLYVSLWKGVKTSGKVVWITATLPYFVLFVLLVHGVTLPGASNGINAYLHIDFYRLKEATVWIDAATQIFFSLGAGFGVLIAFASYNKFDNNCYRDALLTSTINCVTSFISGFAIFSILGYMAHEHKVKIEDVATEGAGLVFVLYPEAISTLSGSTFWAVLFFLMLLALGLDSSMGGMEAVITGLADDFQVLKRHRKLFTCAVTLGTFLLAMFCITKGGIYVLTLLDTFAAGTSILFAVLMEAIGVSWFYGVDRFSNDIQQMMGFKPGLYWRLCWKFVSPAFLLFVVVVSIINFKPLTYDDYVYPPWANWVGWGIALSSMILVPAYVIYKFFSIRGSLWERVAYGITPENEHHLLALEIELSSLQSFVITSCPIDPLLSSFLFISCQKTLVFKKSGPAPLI

SMILES	inhibition at 10 µM (NA transporter)	other results
COc1ccc(Cl)cc1NC(=O)N1CCc2onc(C(=O)NCC(C)C)c2C1 [Example 24, 6,7-dihydro-4H-isoxazolo[4,5-c]pyridine-3,5-dicarboxylic acid 5-[(5-chloro-2-methoxyphenyl) amide] 3-(isobutyl-amide)]	–	NA Uptake (rat), 10 μM, % inhibition (NA transporter): 51%
CCC(C)(CC(=O)O)CC(=O)N1CCc2onc(C(=O)Nc3ccccc3)c2C1 (centres unmarked) [Example 29, 3-ethyl-3-methyl-5-oxo-5-(3-phenylcarbamoyl-6,7-dihydro-4H-isoxazolo[4,5-c]pyridin-5-yl)-pentanoic acid]	44%	–
O=C(c1noc2c1CN(S(=O)(=O)c1ccc(OC(F)(F)F)cc1)CC2)N(CCc1ccccc1)Cc1ccccc1 [Example 32, 5-(4-trifluoromethoxy-benzenesulfonyl)-4,5,6,7-tetrahydro-isoxazolo[4,5-c]pyridine-3-carboxylic acid benzyl-phenethyl amide]	82%	–
O=C(NCCCc1ccccc1)c1noc2c1CN(S(=O)(=O)c1ccc(F)cc1)CC2 [Example 35, 5-(4-fluoro-benzenesulfonyl)-4,5,6,7-tetrahydro-isoxazolo[4,5-c]pyridine-3-carboxylic acid (3-phenyl-propyl) amide]	73%	–
CC(CCc1ccccc1)NC(=O)c1noc2c1CN(S(=O)(=O)c1ccc(F)cc1)CC2 (centres unmarked) [Example 38, 5-(4-fluoro-benzenesulfonyl)-4,5,6,7-tetrahydro-isoxazolo[4,5-c]pyridine-3-carboxylic acid (1-methyl-3-phenyl-propyl) amide]	66%	–
O=C(NC1CCN(Cc2ccc(C(F)(F)F)cc2)C1)c1noc2c1CN(S(=O)(=O)c1ccc(F)cc1)CC2 (centres unmarked) [Example 39, 5-(4-fluoro-benzenesulfonyl)-4,5,6,7-tetrahydro-isoxazolo[4,5-c]pyridine-3-carboxylic acid [1-(4-trifluoromethyl-benzyl)-pyrrolidin-3-yl]amide]	61%	–
O=C(NC1CCCC1OCc1ccccc1)c1noc2c1CN(S(=O)(=O)c1cc(Cl)ccc1Cl)CC2 (centres unmarked) [Example 40, 5-(2,5-dichloro-benzenesulfonyl)-4,5,6,7-tetrahydro-isoxazolo[4,5-c]pyridine-3-carboxylic acid (2-benzyloxy-cyclopentyl) amide]	71%	–
CCOC(=O)N1CCC(NC(=O)c2noc3c2CN(S(=O)(=O)c2ccc(F)cc2)CC3)CC1 [Example 43]	–	NA Uptake (rat), 10 μM, % inhibition (NA transporter): 63%
O=C(NC1CCCC1)c1noc2c1CN(C(=O)C=Cc1ccccc1)CC2 [Example 44, 5-(3-phenyl-acryloyl)-4,5,6,7-tetrahydro-isoxazolo[4,5-c]pyridine-3-carboxylic acid cyclopentyl amide]	76%	–
O=C(Cc1ccc(F)c(F)c1)N1CCN(C(=O)c2noc3c2CN(S(=O)(=O)c2ccc(F)cc2)CC3)CC1 [Example 48, 2-(3,4-difluoro-phenyl)-1-{4-[5-(4-fluoro-benzenesulfonyl)-4,5,6,7-tetrahydro-isoxazolo[4,5-c]pyridine-3-carbonyl]-piperazin-1-yl}-ethanone]	61%	–
CN(C)S(=O)(=O)N1CCc2onc(C(=O)N3CCOCC3)c2C1 [Example 49, 3-(morpholine-4-carbonyl)-6,7-dihydro-4H-isoxazolo[4,5-c]pyridine-5-sulfonic acid dimethyl amide]	73%	–
O=C(NCc1cccs1)c1noc2c1CN(C(=O)c1ccco1)CC2 [Example 50, 5-(furan-2-carbonyl)-4,5,6,7-tetrahydro-isoxazolo[4,5-c]pyridine-3-carboxylic acid (thiophen-2-ylmethyl) amide]	71%	–
CC12CCC(C(=O)N3CCc4onc(C(=O)NCCN5CCCC5)c4C3)(OC1=O)C2(C)C (centres unmarked) [Example 51, 5-(4,7,7-trimethyl-3-oxo-2-oxa-bicyclo[2.2.1]heptane-1-carbonyl)-4,5,6,7-tetrahydro-isoxazolo[4,5-c]pyridine-3-carboxylic acid (2-pyrrolidin-1-yl-ethyl) amide]	73%	–
O=C(NCCN1CCOCC1)c1noc2c1CN(S(=O)(=O)c1cc(Cl)c(Cl)s1)CC2 [Example 63, 5-(4,5-dichloro-thiophene-2-sulfonyl)-4,5,6,7-tetrahydro-isoxazolo[4,5-c]pyridine-3-carboxylic acid (2-morpholin-4-yl-ethyl) amide]	77%	–
O=C(NC1CCCC1)c1noc2c1CN(C(=O)COc1ccc(Cl)cc1)CC2 [Example 81, 5-[2-(4-chlorophenoxy)-acetyl]-4,5,6,7-tetrahydro-isoxazolo[4,5-c]pyridine-3-carboxylic acid cyclopentyl amide]	68%	–
CC(CCc1ccccc1)NC(=O)c1noc2c1CN(S(=O)(=O)c1ccc(OC(F)(F)F)cc1)CC2 (centres unmarked) [Example 96, 5-(4-trifluoromethoxy-benzenesulfonyl)-4,5,6,7-tetrahydro-isoxazolo[4,5-c]pyridine-3-carboxylic acid (1-methyl-3-phenyl-propyl) amide]	63%	–
O=C(NC1CCN(Cc2ccc(C(F)(F)F)cc2)C1)c1noc2c1CN(S(=O)(=O)c1ccccc1)CC2 (centres unmarked) [Example 103, 5-benzenesulfonyl-4,5,6,7-tetrahydro-isoxazolo[4,5-c]pyridine-3-carboxylic acid [1-(4-trifluoromethyl-benzyl)-pyrrolidin-3-yl] amide]	91%	–
CC(CNC(=O)c1noc2c1CN(S(=O)(=O)c1cccs1)CC2)c1ccccc1 (centres unmarked) [Example 104, 5-(thiophene-2-sulfonyl)-4,5,6,7-tetrahydro-isoxazolo[4,5-c]pyridine-3-carboxylic acid (2-phenyl-propyl) amide]	77%	–
CC(C)CNC(=O)c1noc2c1CN(C(=O)c1cc(C(F)(F)F)ccc1Cl)CC2 [Example 116, 5-(2-chloro-5-trifluoromethyl-benzoyl)-4,5,6,7-tetrahydro-isoxazolo[4,5-c]pyridine-3-carboxylic acid isobutyl amide]	–	inhibition at 10 µM (5-HT transporter): 77%
CN(C)CCNC(=O)c1noc2c1CN(C(=O)c1cccc(OC(F)(F)F)c1)CC2 [Example 119, 5-(3-trifluoromethoxy-benzoyl)-4,5,6,7-tetrahydro-isoxazolo[4,5-c]pyridine-3-carboxylic acid (2-dimethylamino-ethyl) amide]	–	inhibition at 10 µM (5-HT transporter): 73%
O=C(NCc1ccc(F)cc1)c1noc2c1CN(C(=O)c1ccc3ncccc3c1)CC2 [Example 124, 5-(quinoline-6-carbonyl)-4,5,6,7-tetrahydro-isoxazolo[4,5-c]pyridine-3-carboxylic acid 4-fluorobenzyl amide]	–	inhibition at 10 µM (5-HT transporter): 65%
CC(C)CNC(=O)c1noc2c1CN(C(=O)C(NC(=O)OCc1ccccc1)c1ccccc1)CC2 (centres unmarked) [Example 126, [2-(3-isobutylcarbamoyl-6,7-dihydro-4H-isoxazolo[4,5-c]pyridin-5-yl)-2-oxo-1-phenyl-ethyl]-carbamic acid benzyl ester]	–	inhibition at 10 µM (5-HT transporter): 80%
O=C(NC(=S)N1CCc2onc(C(=O)NCCN3CCCC3)c2C1)c1ccccc1 [Example 128, 5-benzoylaminocarbothioyl-4,5,6,7-tetrahydro-isoxazolo[4,5-c]pyridine-3-carboxylic acid (2-pyrrolidin-1-yl-ethyl) amide]	–	inhibition at 10 µM (5-HT transporter): 80%
O=C(NCC1CC1)c1noc2c1CN(C(=S)NCc1ccc(Cl)cc1)CC2 [Example 129, 5-(4-chloro-benzylthiocarbamoyl)-4,5,6,7-tetrahydro-isoxazolo[4,5-c]pyridine-3-carboxylic acid cyclopropylmethyl amide]	–	inhibition at 10 µM (5-HT transporter): 75%
Cc1ccc(CNC(=O)c2noc3c2CN(C(=S)Nc2c(F)c(F)c(F)c(F)c2F)CC3)o1 [Example 133, 5-pentafluorophenylthiocarbamoyl-4,5,6,7-tetrahydro-isoxazolo[4,5-c]pyridine-3-carboxylic acid (5-methyl-furan-2-ylmethyl) amide]	–	5-HT uptake (rat), 10 μM, % inhibition (5-HT transporter): 63%
CCOC(=O)CCNC(=O)c1noc2c1CN(C(=S)NCC1CCCCC1)CC2 [Example 134, 3-{[5-(cyclohexylmethyl-thiocarbamoyl)-4,5,6,7-tetrahydro-isoxazolo[4,5-c]pyridine-3-carbonyl]-amino}-propionic acid ethyl ester]	–	inhibition at 10 µM (5-HT transporter): 61%
